{"source": "patent US9664690B1", "about": "“Molecular diagnostic kits for evaluating stress” (The National Institute for Biotechnology in the Negev Ltd., priority 2013, dated 2017)", "test_system": "PBMCs", "assay": "GR antagonist block of MP immunosuppressive effects in anti-CD3 stimulated PBMCs (IFNg ELISA)", "type": "cell-based, human", "conditions": "plate-bound anti-CD3 48 hours, MP plus mifepristone", "experimental": "Peripheral blood lymphocytes were stimulated in 96-well culture plate (2×10^5 cells/well) with plate bound anti-CD3 mAb (0.5 μg/ml), and cultured for 48 h at 37° C. The cultured supernatants were removed and stored at […]. Cytokine concentration in the supernatants were measured by ELISA using human cytokine kits.\nAnother approach to investigate the functionality of GR is by the examination of the responsiveness of immune cell subsets to the glucocorticoid antagonist, mifepristone. […] This indicates an impairment in GR signaling which contributes to steroid resistance, which could be tested in stressed and non-stressed individuals as described herein. Such an impairment could also optionally act as a biomarker for the stress diagnostic kit according to at least some embodiments thereof.\nPBMCs were purified from young healthy-aged and AD subjects, stimulated by plate-bound anti-CD3 mAb (0.5 micro-g/ml) for 48 hours in the presence of MP or with both MP and GR antagonist, mifepristone. The cultured supernatants were examined for IFNg production by ELISA; the results are shown as percentage of the levels measured without MP.", "data": [{"compound": "CC#C[C@]1(O)CC[C@H]2[C@@H]3CCC4=CC(=O)CCC4=C3[C@@H](c3ccc(N(C)C)cc3)C[C@@]21C", "note": "[mifepristone]", "values": [{"measurement": "blocking of MP immunosuppressive effects (IFNg production)", "setting": "PBMCs of aged and Alzheimer's disease (AD) subjects", "result": "impaired"}, {"measurement": "blocking of MP immunosuppressive effects (IFNg production)", "setting": "PBMCs of young subjects", "result": "partially blocks"}]}]}
